In ChEMBL document CHEMBL3044945, “Synthesis of 1,3,5-trisubstituted pyrazoline nucleus containing compounds and screening for antimicrobial activity” (2012):
In brackets after ≈: the same amount, converted by molar mass.

Experiments:
Assay type in all cases: functional
[1] = system: Pseudomonas aeruginosa; test: Antibacterial activity against Pseudomonas aeruginosa MTCC 424 at 500 ug/ml after 48 hr by cup-plate method; conditions: MTCC 424, 48 h, read-out: DIZ
[2] = system: Bacillus subtilis; test: Antibacterial activity against Bacillus subtilis MTCC 441 at 750 ug/ml after 48 hr by cup-plate method; conditions: MTCC 441, 48 h, read-out: DIZ
[3] = system: Bacillus subtilis; test: Antibacterial activity against Bacillus subtilis MTCC 441 at 1000 ug/ml after 48 hr by cup-plate method; conditions: MTCC 441, 48 h, read-out: DIZ
[4] = system: Micrococcus luteus; test: Antibacterial activity against Micrococcus luteus MTCC 1538 at 250 ug/ml after 48 hr by cup-plate method; conditions: MTCC 1538, 48 h, read-out: DIZ
[5] = system: Bacillus pumilus; test: Antibacterial activity against Bacillus pumilus MTCC 1456 at 100 ug/ml after 48 hr by cup-plate method; conditions: MTCC 1456, 48 h, read-out: DIZ
[6] = system: Escherichia coli; test: Antibacterial activity against Escherichia coli MTCC 1573 at 1000 ug/ml after 48 hr by cup-plate method; conditions: MTCC 1573, 48 h, read-out: DIZ
[7] = system: Penicillium chrysogenum; test: Antifungal activity against Penicillium chrysogenum MTCC 161 at 500 ug/ml after 48 hr by cup-plate method; conditions: MTCC 161, 48 h, read-out: DIZ
[8] = system: Staphylococcus aureus; test: Antibacterial activity against Staphylococcus aureus MTCC 1430 at 250 ug/ml after 48 hr by cup-plate method; conditions: MTCC 1430, 48 h, read-out: DIZ
[9] = system: Penicillium chrysogenum; test: Antifungal activity against Penicillium chrysogenum MTCC 161 after 24 to 48 hr by tube dilution method
[10] = system: Pseudomonas fluorescens; test: Antibacterial activity against Pseudomonas fluorescens MTCC 2421 at 1250 ug/ml after 48 hr by cup-plate method; conditions: MTCC 2421, 48 h, read-out: DIZ
[11] = system: Bacillus subtilis; test: Antibacterial activity against Bacillus subtilis MTCC 441 after 24 to 48 hr by tube dilution method
[12] = system: Staphylococcus aureus; test: Antibacterial activity against Staphylococcus aureus MTCC 1430 after 24 to 48 hr by tube dilution method
[13] = system: Pseudomonas fluorescens; test: Antibacterial activity against Pseudomonas fluorescens MTCC 2421 at 1000 ug/ml after 48 hr by cup-plate method; conditions: MTCC 2421, 48 h, read-out: DIZ
[14] = system: Aspergillus niger; test: Antifungal activity against Aspergillus niger MTCC 2546 at 1250 ug/ml after 48 hr by cup-plate method; conditions: MTCC 2546, 48 h, read-out: DIZ
[15] = system: Micrococcus luteus; test: Antibacterial activity against Micrococcus luteus MTCC 1538 at 750 ug/ml after 48 hr by cup-plate method; conditions: MTCC 1538, 48 h, read-out: DIZ
[16] = system: Escherichia coli; test: Antibacterial activity against Escherichia coli MTCC 1573 at 500 ug/ml after 48 hr by cup-plate method; conditions: MTCC 1573, 48 h, read-out: DIZ
[17] = system: Micrococcus luteus; test: Antibacterial activity against Micrococcus luteus MTCC 1538 at 100 ug/ml after 48 hr by cup-plate method; conditions: MTCC 1538, 48 h, read-out: DIZ
[18] = system: Staphylococcus aureus; test: Antibacterial activity against Staphylococcus aureus MTCC 1430 at 1250 ug/ml after 48 hr by cup-plate method; conditions: MTCC 1430, 48 h, read-out: DIZ
[19] = system: Aspergillus niger; test: Antifungal activity against Aspergillus niger MTCC 2546 at 500 ug/ml after 48 hr by cup-plate method; conditions: MTCC 2546, 48 h, read-out: DIZ
[20] = system: Escherichia coli; test: Antibacterial activity against Escherichia coli MTCC 1573 after 24 to 48 hr by tube dilution method
[21] = system: Pseudomonas fluorescens; test: Antibacterial activity against Pseudomonas fluorescens MTCC 2421 at 500 ug/ml after 48 hr by cup-plate method; conditions: MTCC 2421, 48 h, read-out: DIZ
[22] = system: Pseudomonas aeruginosa; test: Antibacterial activity against Pseudomonas aeruginosa MTCC 424 at 1000 ug/ml after 48 hr by cup-plate method; conditions: MTCC 424, 48 h, read-out: DIZ
[23] = system: Staphylococcus aureus; test: Antibacterial activity against Staphylococcus aureus MTCC 1430 at 1000 ug/ml after 48 hr by cup-plate method; conditions: MTCC 1430, 48 h, read-out: DIZ
[24] = system: Bacillus pumilus; test: Antibacterial activity against Bacillus pumilus MTCC 1456 after 24 to 48 hr by tube dilution method
[25] = system: Micrococcus luteus; test: Antibacterial activity against Micrococcus luteus MTCC 1538 after 24 to 48 hr by tube dilution method
[26] = system: Micrococcus luteus; test: Antibacterial activity against Micrococcus luteus MTCC 1538 at 500 ug/ml after 48 hr by cup-plate method; conditions: MTCC 1538, 48 h, read-out: DIZ
[27] = system: Aspergillus niger; test: Antifungal activity against Aspergillus niger MTCC 2546 after 24 to 48 hr by tube dilution method
[28] = system: Penicillium chrysogenum; test: Antifungal activity against Penicillium chrysogenum MTCC 161 at 750 ug/ml after 48 hr by cup-plate method; conditions: MTCC 161, 48 h, read-out: DIZ

Q: `O=[N+]([O-])c1ccc(C2CC(c3cccc4ccccc34)=NN2c2ccc([N+](=O)[O-])cc2[N+](=O)[O-])cc1` (stereo not drawn) was tested. Which zone of inhibition at 500 µg/mL [1] did it give?
A: The zone of inhibition at 500 µg/mL was 12 mm.

Q: And the zone of inhibition at 750 µg/mL [2]?
A: The zone of inhibition at 750 µg/mL was 14 mm.

Q: What about the zone of inhibition at 1000 µg/mL [3] of the same molecule?
A: The zone of inhibition at 1000 µg/mL was 15 mm.

Q: And the zone of inhibition at 250 µg/mL [4]?
A: Its zone of inhibition at 250 µg/mL is 9 mm.

Q: What about the zone of inhibition at 100 µg/mL [5] of the same molecule?
A: The zone of inhibition at 100 µg/mL was 10 mm.

Q: And the zone of inhibition at 1000 µg/mL [6]?
A: The zone of inhibition at 1000 µg/mL was 14 mm.

Q: What about the zone of inhibition at 500 µg/mL [7] of the same molecule?
A: Its zone of inhibition at 500 µg/mL is 18 mm.

Q: What about the zone of inhibition at 250 µg/mL [8] of the same molecule?
A: The zone of inhibition at 250 µg/mL was 8 mm.

Q: And the MIC [9]?
A: The MIC was 50 µg/mL (≈ 103 µM).

Q: And the zone of inhibition at 1250 µg/mL [10]?
A: Its zone of inhibition at 1250 µg/mL is 25 mm.

Q: What about the MIC [11] of the same molecule?
A: Its MIC is 50 µg/mL (≈ 103 µM).

Q: What about the MIC [12] of the same molecule?
A: The MIC was 150 µg/mL (≈ 310 µM).

Q: What about the zone of inhibition at 1000 µg/mL [13] of the same molecule?
A: The zone of inhibition at 1000 µg/mL was 22 mm.

Q: What about the zone of inhibition at 1250 µg/mL [14] of the same molecule?
A: The zone of inhibition at 1250 µg/mL was 23 mm.

Q: What about the zone of inhibition at 750 µg/mL [15] of the same molecule?
A: The zone of inhibition at 750 µg/mL was 11 mm.

Q: And the zone of inhibition at 500 µg/mL [16]?
A: Its zone of inhibition at 500 µg/mL is 11 mm.

Q: And the zone of inhibition at 100 µg/mL [17]?
A: The zone of inhibition at 100 µg/mL was 8 mm.

Q: And the zone of inhibition at 1250 µg/mL [18]?
A: The zone of inhibition at 1250 µg/mL was 14 mm.

Q: What about the zone of inhibition at 500 µg/mL [19] of the same molecule?
A: Its zone of inhibition at 500 µg/mL is 16 mm.

Q: And the MIC [20]?
A: The MIC was 150 µg/mL (≈ 310 µM).

Q: What about the zone of inhibition at 500 µg/mL [21] of the same molecule?
A: Its zone of inhibition at 500 µg/mL is 18 mm.

Q: What about the zone of inhibition at 1000 µg/mL [22] of the same molecule?
A: Its zone of inhibition at 1000 µg/mL is 14 mm.

Q: What about the zone of inhibition at 1000 µg/mL [23] of the same molecule?
A: The zone of inhibition at 1000 µg/mL was 12 mm.

Q: And the MIC [24]?
A: Its MIC is 30 µg/mL (≈ 62.1 µM).

Q: And the MIC [25]?
A: The MIC was 150 µg/mL (≈ 310 µM).

Q: And the zone of inhibition at 500 µg/mL [26]?
A: The zone of inhibition at 500 µg/mL was 10 mm.

Q: What about the MIC [27] of the same molecule?
A: Its MIC is 150 µg/mL (≈ 310 µM).

Q: And the zone of inhibition at 750 µg/mL [28]?
A: The zone of inhibition at 750 µg/mL was 22 mm.
